Experimental data from patent US20240050385A1, “METHODS OF TREATING LEPTOMENINGEAL METASTASIS” (MEMORIAL SLOAN-KETTERING CANCER CENTER, priority 2020, published 2024).
Entries after “also recorded” stand apart in the source; their conditions may differ. Structures can show the parent of a compound that is named as a salt.

System: LeptoM cells
Assay: Iron Assay, chelation assay in vitro (intracellular iron)
Assay type: cell-based, human
Settings: PC9-LeptoM and MDA231-LeptoM cells; 0, 1, 10, 100 μM; in words
From the text: FIG. 16A-16L. Iron chelator treatment reduces CSF iron. (A) Experimental scheme. Mice were inoculated with 2×10^3 cells intrathecally on day 0. Treatment with either vehicle, DFO, or D-pen was commenced on either day 1 or day 7 and continued every third day for a total of 7 doses. (B) Chelators delivered intrathecally. DFO, Deferoxamine. D-Pen, D-Penicillamine. (C-F) Intracellular iron (C and E) and viability (D and F) of PC9-LeptoM cells and MDA231-LeptoM cells after treatment with chelators in different concentrations (0 μM, 1 μM, 10 μM and 100 μM). n=3-4 per group in each of two independent experiments. * indicates p<0.05, ** indicates p<0.01, ***indicates p<0.001, **** indicates p<0.0001 (unpaired t test). Data represent mean±SEM. (G) Growth of PC9-LeptoM tumor after treatment indicated in (A). Left: in vivo BLI imaging in day 28 post-inoculation. n=8-10 per group in each of two independent experiments. Right: Representative BLI images. **** indicates p<0.0001. Data represent mean±SEM. (H) Kaplan-Meier survival curve from (C) and (E). p<0.0001. (I and J) Total iron concentration measured in CSF samples of mice with treatment of chelators in PC9-LeptoM Model (I) in MDA231-LeptoM model (J). […]
Iron Assay. […] The Iron Assay Kit (Sigma-Aldrich, MAK025) was used to quantify total iron in the intracellular contents and culture supernatant following the manufacturer's protocols. […]

With CC(=O)N(O)CCCCCNC(=O)CCC(=O)N(O)CCCCCNC(=O)CCC(=O)N(O)CCCCCN [DFO, Deferoxamine mesylate] the “iron levels within the LeptoM cells” value was “substantially suppressed; also recorded: dramatically suppressed”.
